Data reported in the supplement of paper PMC4121296.

Experiments:
Details in all cases: exposure: 5-72 hpf
[1] = system: Danio rerio embryo (fli1:egfp); test: heart rate at 72 hpf (beats per minute); higher = faster heart rate
Procedure: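 fli1:egfp zebrafish embryos exposed 5-72 hpf to chemical (0.05-50 µM, 0.1% DMSO) in 384-well plates; heart rate at 72 hpf quantified from stream acquisitions by semi-automated MetaXpress journal (peak counting); only embryos in concentrations passing survival/body-length criteria analyzed.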

[2] = system: Danio rerio embryo (fli1:egfp); test: body length at 72 hpf (µm); higher = longer body (less growth inhibition)
Procedure: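 Transgenic fli1:egfp zebrafish embryos (one per well, 384-well plate) exposed statically from 5 to 72 hpf at 28 °C to chemical (0.05-50 µM, 0.1% DMSO); at 72 hpf anesthetized and imaged on ImageXpress; body length of live, hatched, correctly oriented embryos measured by automated MetaXpress journal. Dead/unhatched/misoriented embryos have no value.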

[3] = system: Danio rerio embryo (fli1:egfp); test: pericardial area at 72 hpf (image area units (not stated)); higher = larger pericardial area (edema)
Procedure: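 fli1:egfp zebrafish embryos exposed 5-72 hpf to chemical (0.05-50 µM, 0.1% DMSO); pericardial area at 72 hpf measured by semi-automated MetaXpress journal (increase indicates edema).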

[4] = system: Danio rerio embryo (fli1:egfp); test: arterial (dorsal aorta) circulation score at 72 hpf (normalized DA-Max (arbitrary units)); higher = more circulation
Procedure: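 fli1:egfp zebrafish embryos exposed 5-72 hpf to chemical (0.05-50 µM, 0.1% DMSO); arterial circulation at 72 hpf quantified from stream acquisitions of the dorsal aorta by FFT-based analysis (DA-Max, normalized dorsal aorta signal); only concentrations passing survival/body-length criteria analyzed.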

[5] = system: Danio rerio embryo (fli1:egfp); test: intersegmental vessel area normalized to body length at 72 hpf (ISV area / body length (normalized units)); higher = more vessel area
Procedure: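 fli1:egfp zebrafish embryos exposed 5-72 hpf to chemical (0.05-50 µM, 0.1% DMSO); intersegmental vessel (ISV) eGFP area quantified by MetaXpress journal at 72 hpf and normalized to body length.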

CN(C)C(=S)SSC(=S)N(C)C [Thiram]
Details | arterial, [4] | body length at 72 hpf, [2] | heart rate at 72 hpf, [1] | intersegmental vessel area normalized, [5] | pericardial area at 72 hpf, [3]
95 pM | 9.22 | 3070 | 180 | 95.8 | 11600
0.00019 µM | 11.1 | 3010 | 187 | 101 | 11600
0.00038 µM | 9.48 | 3060 | 179 | 97.6 | 12500
0.00076 µM | 10.3 | 3020 | 192 | 98.6 | 11500
0.0015 µM | 11 | 3050 | 191 | 95.6 | 11200
0.003 µM | 9.4 | 3070 | 196 | 99.4 | 12900
0.0061 µM | 8.74 | 3050 | 196 | 110 | 14600
0.0122 µM | 9.58 | 3070 | 189 | 99.1 | 12000
0.0244 µM | 11.3 | 3080 | 179 | 97.9 | 12400

C#CCOC(=O)[C@@H](C)Oc1ccc(Oc2ncc(Cl)cc2F)cc1 [Clodinafop-propargyl]
Details | arterial, [4] | body length at 72 hpf, [2] | heart rate at 72 hpf, [1] | intersegmental vessel area normalized, [5] | pericardial area at 72 hpf, [3]
0.0244 µM | 11.8 | 3010 | 177 | 65.9 | 14100
0.05 µM | 14.5 | 2990 | 168 | 84.8 | 13100
0.098 µM | 12.3 | 2960 | 173 | 79 | 12900
0.195 µM | 16.7 | 3060 | 183 | 76.8 | 13800
0.39 µM | 14.4 | 3000 | 188 | 87.1 | 15200
0.78 µM | 14.4 | 3000 | 185 | 73.6 | 15400
1.56 µM | 12 | 3030 | 190 | 84 | 13500
3.125 µM | 14.8 | 3030 | 191 | 82.7 | 12900
6.25 µM | 12.5 | 2930 | 193 | 82.8 | 12900
12.5 µM | 13.6 | 2940 | 196 | 89.6 | 13000

O=C(O)c1cc(Oc2ccc(C(F)(F)F)cc2Cl)ccc1[N+](=O)[O-] [Acifluorfen]
Details | arterial, [4] | body length at 72 hpf, [2] | heart rate at 72 hpf, [1] | intersegmental vessel area normalized, [5] | pericardial area at 72 hpf, [3]
0.05 µM | 16.3 | 2970 | 168 | 81.7 | 14900
0.098 µM | 14.7 | 3000 | 169 | 82.8 | 17600
0.195 µM | 14.4 | 3030 | 166 | 89.2 | 16700
0.39 µM | 15.6 | 3000 | 168 | 82.3 | 16700
0.78 µM | 14.4 | 2970 | 167 | 92.9 | 15600
1.56 µM | 15.9 | 3040 | 164 | 82.3 | 16400
3.125 µM | 15.2 | 3030 | 164 | 85.2 | 17500
6.25 µM | 14.2 | 3030 | 177 | 89.2 | 19400
12.5 µM | 16.1 | 3020 | 175 | 89.5 | 15900
25 µM | 15.6 | 2960 | 175 | 89.3 | 15500
50 µM | 14.5 | 2980 | 180 | 99.8 | 15800

C=C(C)[C@H]1Cc2c(ccc3c2O[C@@H]2COc4cc(OC)c(OC)cc4[C@@H]2C3=O)O1 [Rotenone]
0.05 µM
Details | arterial | body length at 72 hpf | heart rate at 72 hpf | intersegmental vessel area normalized | pericardial area at 72 hpf
[1] | – | – | 141 | – | –
[2] | – | 3020 | – | – | –
[3] | – | – | – | – | 18800
[4] | 8.64 | – | – | – | –
[5] | – | – | – | 85.6 | –

C#CCN1C(=O)COc2cc(F)c(N3C(=O)C4=C(CCCC4)C3=O)cc21 [Flumioxazin]
Details | arterial, [4] | body length at 72 hpf, [2] | heart rate at 72 hpf, [1] | intersegmental vessel area normalized, [5] | pericardial area at 72 hpf, [3]
0.05 µM | 6.76 | 3020 | 175 | 73.7 | 17000
0.098 µM | 5.49 | 2970 | 169 | 74.8 | 17800
0.195 µM | 5.79 | 3020 | 160 | 82.8 | 18200
0.39 µM | 4.85 | 2920 | 155 | 68.9 | 19000
0.78 µM | 5.18 | 3030 | 156 | 68.8 | 23000
1.56 µM | 4.72 | 2960 | 164 | 74.8 | 18100
3.125 µM | 4.39 | 3000 | 182 | 74 | 18700
6.25 µM | 4.22 | 3000 | 169 | 69.6 | 19200
12.5 µM | 4.91 | 2990 | 182 | 75.9 | 19300
25 µM | 4.04 | 2920 | 166 | 86.4 | 17700
50 µM | 6.16 | 2920 | 166 | 79 | 21100

Cc1nn(-c2cc(NS(C)(=O)=O)c(Cl)cc2Cl)c(=O)n1C(F)F [Sulfentrazone]
Details | arterial, [4] | body length at 72 hpf, [2] | heart rate at 72 hpf, [1] | intersegmental vessel area normalized, [5] | pericardial area at 72 hpf, [3]
0.05 µM | 11.4 | 3000 | 156 | 77.2 | 17900
0.098 µM | 11.7 | 2990 | 158 | 76.8 | 16100
0.195 µM | 12.6 | 2990 | 158 | 71.2 | 16300
0.39 µM | 9.83 | 2970 | 157 | 72.4 | 15600
0.78 µM | 11.3 | 2920 | 161 | 78.9 | 16100
1.56 µM | 8.91 | 2930 | 163 | 72.4 | 18600
3.125 µM | 8.71 | 2970 | 162 | 71.4 | 17200
6.25 µM | 8.86 | 3030 | 167 | 69.7 | 20400
12.5 µM | 7.1 | 3020 | 170 | 74.8 | 18700
25 µM | 11.1 | 2970 | 169 | 71.2 | 21700
50 µM | 5.34 | 2950 | 173 | 71.2 | 21200

CO/N=C(/C(=O)OC)c1ccccc1CO/N=C(\C)c1cccc(C(F)(F)F)c1 [Trifloxystrobin]
Details | arterial, [4] | body length at 72 hpf, [2] | heart rate at 72 hpf, [1] | intersegmental vessel area normalized, [5] | pericardial area at 72 hpf, [3]
0.05 µM | 12.1 | 2950 | 172 | 71 | 12800
0.098 µM | 11.6 | 3060 | 171 | 73.5 | 10600
0.195 µM | 15.7 | 3030 | 167 | 70.2 | 12300
0.39 µM | 15 | 2970 | 173 | 67.6 | 12200
0.78 µM | 14.9 | 3000 | 166 | 68.9 | 13900

CC(C)[C@H](C(=O)O[C@H](C#N)c1cccc(Oc2ccccc2)c1)c1ccc(Cl)cc1 [Esfenvalerate]
Details | arterial, [4] | body length at 72 hpf, [2] | heart rate at 72 hpf, [1] | intersegmental vessel area normalized, [5] | pericardial area at 72 hpf, [3]
0.05 µM | 9.88 | 3070 | 184 | 72.5 | 14800
0.098 µM | 10.8 | 3140 | 182 | 76.8 | 16600
0.195 µM | 10.1 | 3150 | 196 | 76.2 | 14700
0.39 µM | 10.9 | 3090 | 198 | 76.1 | 15300
0.78 µM | 10.1 | 3140 | 195 | 75.7 | 15800
1.56 µM | 10.3 | 3160 | 194 | 63.9 | 15900
3.125 µM | 13.2 | 2970 | 188 | 88.9 | 14100
6.25 µM | 11.9 | 2830 | 188 | 88.2 | 14600
12.5 µM | – | 2760 | – | – | –
25 µM | – | 2640 | – | – | –
50 µM | – | 2750 | – | – | –

CC1(C)C(C(=O)OC(C#N)c2cccc(Oc3ccccc3)c2)C1(C)C (stereo not given) [Fenpropathrin]
Details | arterial, [4] | body length at 72 hpf, [2] | heart rate at 72 hpf, [1] | intersegmental vessel area normalized, [5] | pericardial area at 72 hpf, [3]
0.05 µM | 18.5 | 2970 | 183 | 83.1 | 14600
0.098 µM | 13.8 | 2950 | 197 | 80.8 | 13400
0.195 µM | 11.2 | 2970 | 191 | 73.2 | 14500
0.39 µM | 10.7 | 2940 | 192 | 83.8 | 14400
0.78 µM | 12.6 | 2780 | 192 | 85.4 | 13200
1.56 µM | 20.9 | 2720 | 188 | 90.6 | 13400
3.125 µM | 21.2 | 2710 | 186 | 82.2 | 13600
6.25 µM | – | 2640 | – | – | –
12.5 µM | – | 2590 | – | – | –

CCOC(=O)C(C)OC(=O)c1cc(Oc2ccc(C(F)(F)F)cc2Cl)ccc1[N+](=O)[O-] (stereo not given) [Lactofen]
Details | arterial, [4] | body length at 72 hpf, [2] | heart rate at 72 hpf, [1] | intersegmental vessel area normalized, [5] | pericardial area at 72 hpf, [3]
0.05 µM | 8.21 | 3000 | 189 | 84.8 | 13400
0.098 µM | 7.39 | 3000 | 187 | 87.9 | 17300
0.195 µM | 8.26 | 2990 | 191 | 81.5 | 15800
0.39 µM | 8.42 | 2940 | 188 | 83.3 | 15800
0.78 µM | 5.92 | 2950 | 191 | 82.4 | 19300
1.56 µM | 6.43 | 2980 | 193 | 85.2 | 19800
3.125 µM | 5.46 | 2960 | 190 | 88 | 21500
6.25 µM | 4.85 | 2910 | 188 | 92.9 | 21200
12.5 µM | 4.13 | 2910 | 187 | 99.7 | 23900
